{"source": "patent US8603527B2", "about": "“Pharmaceutical formulations of a substituted diaminopurine” (Signal Pharmaceuticals, LLC, priority 2010, dated 2013)", "key": {"[1]": {"experiment": "Toxicokinetics in pregnant female rabbits", "format": "in vivo, rabbit", "details": "for Kp / AUC / Cmax: female, New Zealand White Hra:(NZW)SPF, rabbit; for Kp: fetal plasma / maternal plasma, oral, Gestation Day 19, calculated from individual ratios, read-out: Fetal:Maternal Plasma Ratio; for Kp / Doe plasma concentration / Fetus concentration (pooled fetal blood samples): rabbits; for AUC / Cmax: po, pregnant rabbits; for Doe plasma concentration / Fetus concentration (pooled fetal blood samples): 2 hours after dosing on Gestation Day 19", "excerpt": "(§1) Additionally, four groups of five animals/group served as toxicokinetic (TK) animals and received the vehicle or test article in the same manner and dose levels as the main study groups. All time-mated females arrived at the laboratory on GD 0, the day evidence of mating was observed."}, "healthy subjects": {"tested_on": "healthy subjects", "experiment": "Safety in the gender, age and food study in healthy subjects", "format": "in vivo, human", "details": "100 mg single oral dose, all age groups, each gender, fasting and fed", "description": "Group 1 (Healthy Females) and Group 3 (Elderly Males and Females): Subjects were screened within 21 days of dosing and eligible subjects were admitted to the study center on Day −1 (i.e., at least 12 hours predose) for baseline assessments and confirmation of eligibility. A single oral dose of 100 mg Compound I was administered on Day 1 following an overnight fast of at least 8 hours. Subjects were discharged from the study center the morning of Day 3 upon completion of study procedures and returned to the study center for PK blood draws and safety assessments on Days 4, 5, and 6. The end-of-study (EOS) evaluation also occurred on Day 6. Subjects returned to the study center for a follow-up visit between 7 and 10 days from EOS. Serial blood samples were collected predose and up to 120 hours postdose for the determination of plasma Compound I concentrations. Safety was monitored throughout the study; safety evaluations included AE reporting, physical examinations, vital sign measurements, ECGs, and clinical laboratory safety tests. All AEs and concomitant medications were assessed and recorded throughout the study from the time the ICF was signed through follow-up.\nGroup 2 (Healthy Males): Subjects in Group 2 participated in this portion of the study to evaluate food effect using a randomized, open-label, single dose, 2-period (Period 1 and Period 2), 2-sequence, 2-way crossover design. […]"}, "[2]": {"tested_on": "time-mated female CD [Crl:CD(SD)] rats", "experiment": "Oral developmental toxicity study in the rat", "format": "in vivo", "quoted_text": "(§2) Compound I was administered orally to four groups of 25 time-mated female CD®[Crl:CD®(SD)] rats/group at dose levels of 0 (vehicle, 1.0% carboxymethylcellulose/0.25% TWEEN® 80), 25, 50, or 100 mg/kg/day from Gestation Days (GD) 6 to 17. In addition, four groups of five time-mated females/group served as toxicokinetic (TK) animals and received the vehicle or test article in the same manner as the main study groups."}, "[3]": {"experiment": "Oral developmental toxicity study in the rat", "format": "in vivo", "details": "female, CD [Crl:CD(SD)], rat, in vivo, oral; rats; read-out: NOAEL for maternal toxicity", "quoted_text": "as §2"}, "[4]": {"tested_on": "time-mated female New Zealand White Hra:(NZW)SPF rabbits", "details": "rabbit, in vivo, 10 mg/kg/day", "excerpt": "as §1"}, "[5]": {"experiment": "Toxicokinetics in pregnant female rats", "format": "in vivo, rat", "details": "for concentration at 2 h / AUC / Cmax / Kp: female, rat; for concentration at 2 h / Kp: oral; for concentration at 2 h / Kp / Fetus concentration (pooled fetal blood samples): rats; for concentration at 2 h / Fetus concentration (pooled fetal blood samples): 2 hours after dosing on Gestation Day 17; for AUC / Cmax: pregnant rats; for Kp: fetal plasma / maternal plasma, Gestation Day 17, calculated from individual ratios, read-out: Fetal:Maternal Plasma Ratio", "description": "Compound I was readily absorbed in pregnant rats following daily oral administration of Compound I for 11 days (GD 6-16). Exposures for Compound I increased in an approximately dose-proportional manner from 25 to 100 mg/kg/day."}, "[6]": {"details": "plasma, 10 mg/kg/day, 10 mg/kg/d oral, Gestation Day 7"}, "[7]": {"details": "plasma, 10 mg/kg/day, 10 mg/kg/d oral, Gestation Day 18"}, "[8]": {"details": "plasma, 20 mg/kg/day, 20 mg/kg/d oral, Gestation Day 7"}, "[9]": {"details": "plasma, 40 mg/kg/day, 40 mg/kg/d oral, Gestation Day 7"}, "[10]": {"details": "plasma, 40 mg/kg/day, 40 mg/kg/d oral, Gestation Day 18"}, "[11]": {"details": "CD [Crl:CD(SD)], plasma, 25 mg/kg/day, 25 mg/kg/d oral, Gestation Day 16"}, "[12]": {"details": "CD [Crl:CD(SD)], plasma, 50 mg/kg/day, 50 mg/kg/d oral, Gestation Day 16"}, "[13]": {"details": "CD [Crl:CD(SD)], plasma, 100 mg/kg/day, 100 mg/kg/d oral, Gestation Day 16"}, "[14]": {"details": "Crl:CD(SD), plasma, 25 mg/kg/day, 25 mg/kg/d oral, Gestation Day 6"}, "[15]": {"details": "Crl:CD(SD), plasma, 50 mg/kg/day, 50 mg/kg/d oral, Gestation Day 6"}, "[16]": {"details": "Crl:CD(SD), plasma, 100 mg/kg/day, 100 mg/kg/d oral, Gestation Day 6"}}, "note": "Where two headings read alike, the source gives them in different places."}
{"compound": "O[C@H]1CC[C@H](Nc2ncc3nc(Nc4c(F)cc(F)cc4F)n([C@H]4CCOC4)c3n2)CC1", "note": "[Compound I, 4-((9-((3S)-tetrahydro-3-furanyl)-8-((2,4,6-trifluorophenyl)amino)-9H-purin-2-yl)amino)-trans-cyclohexanol]", "values": [{"measurement": "Kp", "setting": "[1]; 10 mg/kg/day, 10 mg/kg/d", "value": 0.1}, {"measurement": "Kp", "setting": "[1]; 20 mg/kg/day, 20 mg/kg/d", "value": 0.09}, {"measurement": "Kp", "setting": "[1]; 40 mg/kg/day, 40 mg/kg/d", "value": 0.24}, {"measurement": "AUC", "setting": "[1]; in vivo, 20 mg/kg/day, 20 mg/kg/d oral, Gestation Day 18", "value": 85000, "unit": "ng·h/mL"}, {"measurement": "AUC", "setting": "[1]; [6]", "value": 35200, "unit": "ng·h/mL"}, {"measurement": "Cmax", "setting": "[1]; [6]", "value": 6520, "unit": "ng/mL"}, {"measurement": "AUC", "setting": "[1]; [7]", "value": 39300, "unit": "ng·h/mL"}, {"measurement": "Cmax", "setting": "[1]; [7]", "value": 6730, "unit": "ng/mL"}, {"measurement": "AUC", "setting": "[1]; [8]", "value": 79100, "unit": "ng·h/mL"}, {"measurement": "Cmax", "setting": "[1]; [8]", "value": 12500, "unit": "ng/mL"}, {"measurement": "Cmax", "setting": "[1]; plasma, 20 mg/kg/day, 20 mg/kg/d oral, Gestation Day 18", "value": 13200, "unit": "ng/mL"}, {"measurement": "AUC", "setting": "[1]; [9]", "value": 152000, "unit": "ng·h/mL"}, {"measurement": "Cmax", "setting": "[1]; [9]", "value": 21200, "unit": "ng/mL"}, {"measurement": "AUC", "setting": "[1]; [10]", "value": 152000, "unit": "ng·h/mL"}, {"measurement": "Cmax", "setting": "[1]; [10]", "value": 21500, "unit": "ng/mL"}, {"measurement": "maternal AUC as fold of human AUC", "setting": "[1]; rabbits at NOAEL 20 mg/kg/day vs human 100 mg BID", "value": "~3.4", "unit": "fold"}, {"measurement": "maternal AUC as fold of human AUC", "setting": "[1]; rabbits at NOAEL 20 mg/kg/day vs human 200 mg BID", "value": "~1.6", "unit": "fold"}, {"measurement": "Doe plasma concentration", "setting": "[1]; 10 mg/kg/d", "value": 4916, "unit": "ng/mL"}, {"measurement": "Fetus concentration (pooled fetal blood samples)", "setting": "[1]; 10 mg/kg/d", "value": 465.7, "unit": "ng/mL"}, {"measurement": "Doe plasma concentration", "setting": "[1]; 20 mg/kg/d", "value": 9217, "unit": "ng/mL"}, {"measurement": "Fetus concentration (pooled fetal blood samples)", "setting": "[1]; 20 mg/kg/d", "value": 870.7, "unit": "ng/mL"}, {"measurement": "Doe plasma concentration", "setting": "[1]; 40 mg/kg/d", "value": 15594, "unit": "ng/mL"}, {"measurement": "Fetus concentration (pooled fetal blood samples)", "setting": "[1]; 40 mg/kg/d", "value": 3426, "unit": "ng/mL"}, {"measurement": "tolerability", "setting": "healthy subjects", "value": "well tolerated"}, {"measurement": "doses at which developmental effects were observed", "setting": "[2]; female, CD [Crl:CD(SD)], rat, in vivo", "value": "> 25", "unit": "mg/kg/day"}, {"measurement": "teratogenicity", "setting": "[2]; rat, in vivo", "value": "teratogenic"}, {"measurement": "maternal toxicity", "setting": "[2]; rat, in vivo, 25 mg/kg/day", "value": "No maternal toxicity"}, {"measurement": "incidence of fetal malformations involving heart and aortic vessels, ribs, and/or vertebrae", "setting": "[2]; rat, in vivo, 100 mg/kg/day", "value": "slight increase"}, {"measurement": "post implantation loss index", "setting": "[2]; rat, in vivo, 100 mg/kg/day", "value": "increased"}, {"measurement": "fetal weights lower than controls", "setting": "[2]; rat, in vivo, po, 25 mg/kg/day", "value": "about 6%"}, {"measurement": "fetal body weights lower than controls", "setting": "[2]; rat, in vivo, po, 50 mg/kg/day", "value": "about 11%"}, {"measurement": "fetal body weights lower than controls", "setting": "[2]; rat, in vivo, po, 100 mg/kg/day", "value": "~27", "unit": "%"}, {"measurement": "NOEL for developmental toxicity", "setting": "[2]; rats", "value": 25, "unit": "mg/kg/day"}, {"measurement": "lowest observed effect level (LOEL), developmental effects", "setting": "[2]; rats", "value": 25, "unit": "mg/kg/day"}, {"measurement": "NOAEL", "setting": "[3]", "value": 25, "unit": "mg/kg/day"}, {"measurement": "maternal or developmental toxicity", "setting": "[4]", "value": "No maternal or developmental toxicity"}, {"measurement": "concentration at 2 h", "setting": "[5]; CD [Crl:CD(SD)], fetal blood (pooled), 25 mg/kg/day, 25 mg/kg/d, read-out: Fetus concentration (pooled fetal blood samples)", "value": 897, "unit": "ng/mL"}, {"measurement": "AUC", "setting": "[5]; [11]", "value": 19700, "unit": "ng·h/mL"}, {"measurement": "Cmax", "setting": "[5]; [11]", "value": 1930, "unit": "ng/mL"}, {"measurement": "AUC", "setting": "[5]; [12]", "value": 42300, "unit": "ng·h/mL"}, {"measurement": "Cmax", "setting": "[5]; [12]", "value": 4210, "unit": "ng/mL"}, {"measurement": "AUC", "setting": "[5]; [13]", "value": 96900, "unit": "ng·h/mL"}, {"measurement": "Cmax", "setting": "[5]; [13]", "value": 8130, "unit": "ng/mL"}, {"measurement": "concentration at 2 h", "setting": "[5]; CD [Crl:CD(SD)], plasma, 25 mg/kg/day, 25 mg/kg/d, read-out: Dam plasma concentration", "value": 1520, "unit": "ng/mL"}, {"measurement": "concentration at 2 h", "setting": "[5]; CD [Crl:CD(SD)], plasma, 50 mg/kg/day, 50 mg/kg/d, read-out: Dam plasma concentration", "value": 3410, "unit": "ng/mL"}, {"measurement": "concentration at 2 h", "setting": "[5]; CD [Crl:CD(SD)], plasma, 100 mg/kg/day, 100 mg/kg/d, read-out: Dam plasma concentration", "value": 6650, "unit": "ng/mL"}, {"measurement": "Kp", "setting": "[5]; Crl:CD(SD), 25 mg/kg/day, 25 mg/kg/d", "value": 0.59}, {"measurement": "Kp", "setting": "[5]; Crl:CD(SD), 50 mg/kg/day, 50 mg/kg/d", "value": 0.61}, {"measurement": "Kp", "setting": "[5]; Crl:CD(SD), 100 mg/kg/day, 100 mg/kg/d", "value": 0.61}, {"measurement": "AUC", "setting": "[5]; [14]", "value": 19500, "unit": "ng·h/mL"}, {"measurement": "Cmax", "setting": "[5]; [14]", "value": 2420, "unit": "ng/mL"}, {"measurement": "AUC", "setting": "[5]; [15]", "value": 49500, "unit": "ng·h/mL"}, {"measurement": "Cmax", "setting": "[5]; [15]", "value": 3920, "unit": "ng/mL"}, {"measurement": "AUC", "setting": "[5]; [16]", "value": 102000, "unit": "ng·h/mL"}, {"measurement": "Cmax", "setting": "[5]; [16]", "value": 6790, "unit": "ng/mL"}, {"measurement": "maternal AUC as fold of human AUC", "setting": "[5]; rats at LOEL 25 mg/kg/day vs human 100 mg BID", "value": "~0.8", "unit": "fold"}, {"measurement": "maternal AUC as fold of human AUC", "setting": "[5]; rats at LOEL 25 mg/kg/day vs human 200 mg BID", "value": "~0.4", "unit": "fold"}, {"measurement": "Fetus concentration (pooled fetal blood samples)", "setting": "[5]; 50 mg/kg/d", "value": 2115, "unit": "ng/mL"}, {"measurement": "Fetus concentration (pooled fetal blood samples)", "setting": "[5]; 100 mg/kg/d", "value": 4012, "unit": "ng/mL"}]}
